One assay deals with MDA-MB-231. Description: Growth inhibition of human MDA-MB-231 cells after 48 hrs by SRB assay. The class given is functional. The note with it: MDA-MB-231, 48 h.
Another assay relates to SiHa. The assay is described as follows: Growth inhibition of human SiHa cells after 48 hrs by SRB assay. The format is functional. A general note: Sulforhodamine B stains cellular protein and so reports cell mass.
For a further assay, the system named is HCT-116. The assay is described as follows: Antiproliferative activity against human HCT116 cells after 48 hrs by MTT assay. The note with it: HCT-116, 48 h. The class given is functional, cell-based.
For the next assay, the system named is PANC-1. Description: Antiproliferative activity against human PANC1 cells after 48 hrs by MTT assay. The following applies: PANC-1, 48 h. The format is functional, cell-based. For orientation: Formazan colour is commonly taken as a measure of viable cells.
In assay [1] the test system is HeLa. The assay is described as follows: Antiproliferative activity against human HeLa cells after 48 hrs by MTT assay. The format is functional, cell-based.
In assay [2] the test system is A549. Description: Antiproliferative activity against human A549 cells after 48 hrs by MTT assay. The class given is functional, cell-based. The following applies: A549, 48 h.
A further assay deals with K562. The assay is described as follows: Anticancer activity against human K562 cells. The class given is functional, cell-based.
Assay [3] concerns HepG2. The assay is described as follows: Anticancer activity against human HepG2 cells by MTT assay. The class given is functional, cell-based.
The test system of another assay is HL-60. The assay is described as follows: Anticancer activity against human HL60 cells by MTT assay. The class given is functional, cell-based.
Another assay concerns HT-29. The assay is described as follows: Anticancer activity against human HT-29 cells by MTT assay. The format is functional, cell-based.
The next assay relates to NCI-H460. Description: Growth inhibition of human NCI-H460 cells. The note with it: pooled result: one value given for 3 cell lines, strains, targets or settings. The format is functional.
The target in the next assay is Tubulin. Description: Inhibition of tubulin polymerization (unknown origin). The class given is protein-complex assay, Homo sapiens.
The next assay concerns MCF-10A. Description: Antiproliferative activity against human MCF10A cells by CCK8 assay. The format is cell-based.
The target of a further assay is Histone deacetylase. Description: Inhibition of HDAC (unknown origin). The format is protein assay, Homo sapiens.
In assay [4] the test system is HeLa. The assay is described as follows: Antiproliferative activity against human HeLa cells by CCK8 assay. The class given is functional, cell-based.
The test system of assay [5] is A549. The assay is described as follows: Antiproliferative activity against human A549 cells by CCK8 assay. The class given is functional, cell-based.
Another assay concerns MCF7. The assay is described as follows: Antiproliferative activity against human MCF7 cells by CCK8 assay. The format is functional, cell-based.
For assay [6], the system named is HepG2. Description: Antiproliferative activity against human HepG2 cells by CCK8 assay. The format is functional, cell-based.
The next assay deals with PC-3. The assay is described as follows: Antiproliferative activity against human PC3 cells by CCK8 assay. The class given is functional, cell-based.

For 15 compounds, GI50 and IC50 results are on record in ChEMBL document CHEMBL4613209, “Quinolone hybrids and their anti-cancer activities: An overview” (Eur J Med Chem, 2019).

Structures are written as SMILES.

Usually GI50 stands for the concentration at which growth is held to half of that of the control. Lower therefore signals greater sensitivity of the cells. With `CCn1cc(C(=O)O)c(=O)c2cnc(N3CCN(C(=O)CCSc4nnnn4-c4ccc(F)c(F)c4F)CC3)nc21`, the GI50 in the assay on MDA-MB-231 and in the assay with SiHa was not above 100 nM throughout.

`O=C(O)c1cn(C2CC2)c2cc(N3CCN(C(=O)CCSc4nnnn4Cc4ccccc4)CC3)c(F)cc2c1=O`: the GI50 with MDA-MB-231 and in the assay on SiHa was not above 100 nM each time.

For `O=C(O)c1cn(C2CC2)c2cc(N3CCN(C(=O)CCSc4nnnn4-c4ccc(Br)cc4)CC3)c(F)cc2c1=O`, the GI50 in the assay with MDA-MB-231 and in the assay on SiHa was not above 100 nM in each case.

A word on the IC50: it is the concentration that gives 50% inhibition. A low value points to greater potency in that assay. `CCN(CC)Cc1cn(-c2cc3c(cc2F)c(=O)c(C(=O)NO)cn3C2CC2)nn1`: the IC50 in the assay with HCT-116, in the assay on PANC-1, in the assay on HeLa [1] and in the assay with A549 [2] was more than 10 µM each time.

`CC(C)NCc1cn(-c2cc3c(cc2F)c(=O)c(C(=O)NO)cn3C2CC2)nn1`: the IC50 with HCT-116, in the assay on PANC-1, with HeLa [1] and in the assay with A549 [2] was more than 10 µM in each case.

On to `NC(=O)c1cn([C@@H]2O[C@H](CO)[C@@H](O)[C@H]2O)c2ccc(Nc3ccccc3)cc2c1=O`, for which the IC50 in the assay with K562 came out at 64.1 µM.

For `CCOC(=O)c1cn(Cc2cn(-c3ccc(C)cc3)nn2)c2ccc(F)cc2c1=O`, the IC50 in the assay on HepG2 [3], in the assay with HL-60 and with HT-29 was 13.1 to 88.4 µM throughout.

For the compound `CN(C)Cc1cn(-c2cc3c(cc2F)c(=O)c(C(=O)NO)cn3C2CC2)nn1`, the IC50 in the assay on HCT-116, in the assay with PANC-1, in the assay with HeLa [1] and in the assay on A549 [2] was more than 10 µM throughout.

`O=c1[nH]c2ccccc2c2[nH]c(-c3ccccc3)c(-c3ccccc3)c12` showed a GI50 in the assay on NCI-H460 of 27.5 µM.

As to `C[C@H]1COc2c(N3CCN(C)CC3)c(F)cc3c(=O)c(C(=O)NCc4cn(CCCCCC(=O)NO)nn4)cn1c23`, the IC50 was 1.79 to 6.36 µM on Tubulin; more than 100 µM with MCF-10A; 21 to 850 nM at Histone deacetylase; 0.3 to 12.8 µM in the assay on HeLa [4]; 0.3 to 12.8 µM in the assay with A549 [5]; 0.3 to 12.8 µM in the assay on MCF7. Moreover, the IC50 with HepG2 [6] and with PC-3 was 0.3 to 12.8 µM throughout.

For the compound `CCOC(=O)c1cn(Cc2cn(-c3ccc(Cl)cc3)nn2)c2ccc(C)cc2c1=O`, the IC50 in the assay with HepG2 [3], in the assay on HL-60 and with HT-29 was 13.1 to 88.4 µM in each case.

In turn, `COc1ccc2c(c1)[nH]c(=O)c1c3ccccc3oc21` returned a GI50 in the assay with NCI-H460 of 10.7 to 53.7 µM.

In the case of `CCOC(=O)c1cn(Cc2cn(-c3ccc(Cl)cc3)nn2)c2ccc(Cl)cc2c1=O`, the IC50 with HepG2 [3], with HL-60 and in the assay on HT-29 was 13.1 to 88.4 µM in each case.

For the compound `CCOC(=O)c1cn(Cc2cn(-c3ccc([N+](=O)[O-])cc3)nn2)c2ccc(Cl)cc2c1=O`, the IC50 with HepG2 [3], with HL-60 and in the assay with HT-29 was 13.1 to 88.4 µM in each case.

For `C[C@H]1COc2c(N3CCN(C)CC3)c(F)cc3c(=O)c(C(=O)OCc4cn(CCCCCCCC(=O)NO)nn4)cn1c23`, the IC50 on Tubulin was 1.79 to 6.36 µM; with MCF-10A, more than 100 µM; at Histone deacetylase it was 21 to 850 nM; with HeLa [4] it was 0.3 to 12.8 µM; in the assay with A549 [5], 0.3 to 12.8 µM; with MCF7, 0.3 to 12.8 µM. Moreover, the IC50 in the assay on HepG2 [6] and with PC-3 was 0.3 to 12.8 µM in each case.
